# Structures can show the parent of a compound that is named as a salt. Where two headings read alike, the source gives them in different places.
# Biological target: T1, GPR6 receptor (Homo sapiens, UniProt P46095)
# T1 construct: expressed in transfected cells
# Assay: Inhibition of cAMP Activity of GPR6 In Vitro Assay (CHO-K1 cells, HTRF cAMP)
# Format: cell-based
# Method in brief: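 CHO-K1 cells with doxycycline-induced (1 μg/ml, 20 h) GPR6 treated with compounds 45 min at 37 °C in Ringer's buffer (pH 7.4) with 0.5% fatty acid free BSA. Constitutive cAMP measured by Lance HTRF Ultra cAMP; IC50 from four-parameter logistic fit.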
# [1] = compounds of Compound Table 1, inhibition of constitutive cAMP activity of GPR6 expressed in CHO-K1 cells, approximate IC50, read-out: IC50
# T1 sequence (P46095 whole entry): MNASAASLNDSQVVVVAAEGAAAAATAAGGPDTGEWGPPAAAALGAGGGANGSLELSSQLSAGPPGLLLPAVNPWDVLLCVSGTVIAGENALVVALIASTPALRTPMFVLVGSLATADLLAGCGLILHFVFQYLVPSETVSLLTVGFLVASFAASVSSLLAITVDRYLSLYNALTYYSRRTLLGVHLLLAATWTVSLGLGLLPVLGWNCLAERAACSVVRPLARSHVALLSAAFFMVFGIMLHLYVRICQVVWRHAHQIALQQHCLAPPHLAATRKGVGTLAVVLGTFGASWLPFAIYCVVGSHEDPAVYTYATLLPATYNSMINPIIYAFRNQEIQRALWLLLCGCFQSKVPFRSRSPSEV
Compound,IC50 [nM],IC50 [1] [nM]
"COc1ccc(OC2CCN(c3nc4c(N5CCOCC5)nccc4nc3NC3CC3)CC2)c(F)c1 [Cpd 606, N-cyclopropyl-3-(4-(2-fluoro-4-methoxyphenoxy)piperidin-1-yl)-5-morpholinopyrido[3,4-b]pyrazin-2-amine, 2,2,2-trifluoroacetic acid salt]",717,
"CC(C)Nc1nc2cnncc2nc1N1CCC(Oc2ccc(F)cc2F)CC1 [Cpd 633, 3-(4-(2,4-difluorophenoxy)piperidin-1-yl)-N-isopropylpyrazino[2,3-d]pyridazin-2-amine, 2,2,2-trifluoroacetic acid salt]",,4
"CC(C)Nc1nc2cnncc2nc1N1CCC(Oc2ccc(Cl)cc2F)CC1 [Cpd 644, 3-(4-(4-chloro-2-fluorophenoxy)piperidin-1-yl)-N-isopropylpyrazino[2,3-d]pyridazin-2-amine, 2,2,2-trifluoroacetic acid salt]",,7
"C[C@@H]1C[C@H]1Nc1nc2cnncc2nc1N1CCC([C@@H](F)c2ccc(F)cc2F)CC1 [Cpd 645, 3-(4-((R)-(2,4-difluorophenyl)fluoromethyl)piperidin-1-yl)-N-((1R,2R)-2-methylcyclopropyl)pyrazino[2,3-d]pyridazin-2-amine, 2,2,2-trifluoroacetic acid salt]",,145
"(1-(2-(cyclopropylamino)pyrido[3,4-b]pyrazin-3-yl)piperidin-4-yl)(2,4,6-trifluorophenyl)methanone, 2,2,2-trifluoroacetic acid salt [Cpd 444]",,200
"(1-(2-(cyclopropylamino)pyrido[3,4-b]pyrazin-3-yl)piperidin-4-yl)(2-(methylthio)phenyl)methanone, 2,2,2-trifluoroacetic acid salt [Cpd 581]",,6
"(1-(2-(cyclopropylamino)pyrido[3,4-b]pyrazin-3-yl)piperidin-4-yl)(2-fluoro-5-(methylthio)phenyl)methanone, 2,2,2-trifluoroacetic acid salt [Cpd 593]",,23
"(1-(2-(cyclopropylamino)pyrido[3,4-b]pyrazin-3-yl)piperidin-4-yl)(3-fluorophenyl)methanone, 2,2,2-trifluoroacetic acid salt [Cpd 568]",,2180
"(1-(2-(cyclopropylamino)pyrido[3,4-b]pyrazin-3-yl)piperidin-4-yl)(3-methoxyphenyl)methanone [Cpd 564]",,11000
"(1-(2-(cyclopropylamino)pyrido[3,4-b]pyrazin-3-yl)piperidin-4-yl)(o-tolyl)methanone, 2,2,2-trifluoroacetic acid salt [Cpd 565]",,15400
"(1-(2-(cyclopropylamino)pyrido[3,4-b]pyrazin-3-yl)piperidin-4-yl)(thiophen-2-yl)methanone, 2,2,2-trifluoroacetic acid salt [Cpd 573]",,2800
"(1-(2-(cyclopropylamino)pyrido[3,4-b]pyrazin-3-yl)piperidin-4-yl)(thiophen-3-yl)methanone, 2,2,2-trifluoroacetic acid salt [Cpd 584]",,1740
"(2-(cyclopropylamino)-3-(4-(2,4-difluorobenzyl)piperazin-1-yl)pyrido[3,4-b]pyrazin-7-yl)(morpholino)methanone, 2,2,2-trifluoroacetic acid salt [Cpd 611]",,44
"(2-(cyclopropylamino)-3-(4-(2-fluoro-4-methoxyphenoxy)piperidin-1-yl)pyrido[3,4-b]pyrazin-7-yl)(4-methylpiperazin-1-yl)methanone [Cpd 603]",,1020
"(2-bromophenyl)(1-(2-(cyclopropylamino)pyrido[3,4-b]pyrazin-3-yl)piperidin-4-yl)methanone, 2,2,2-trifluoroacetic acid salt [Cpd 585]",,6040
"(2-bromopyridin-3-yl)(1-(2-(cyclopropylamino)pyrido[3,4-b]pyrazin-3-yl)piperidin-4-yl)methanone, 2,2,2-trifluoroacetic acid salt [Cpd 586]",,2290
"(2-chloro-4-fluorophenyl)(4-(2-(cyclopropylamino)pyrido[3,4-b]pyrazin-3-yl)piperazin-1-yl)methanone, 2,2,2-trifluoroacetic acid salt [Cpd 363]",,230
"(2-chloro-5-fluorophenyl)(1-(2-(cyclopropylamino)pyrido[3,4-b]pyrazin-3-yl)piperidin-4-yl)methanone, 2,2,2-trifluoroacetic acid salt [Cpd 567]",,5780
"(2-chloro-6-fluorophenyl)(1-(2-(cyclopropylamino)pyrido[3,4-b]pyrazin-3-yl)piperidin-4-yl)methanone [Cpd 575]",,6750
"(2-chlorophenyl)(1-(2-(cyclopropylamino)pyrido[3,4-b]pyrazin-3-yl)piperidin-4-yl)methanone, 2,2,2-trifluoroacetic acid salt [Cpd 557]",,1920
"(2-fluoro-4-methoxyphenyl)(1-(3-(isopropylamino)pyrazino[2,3-d]pyridazin-2-yl)piperidin-4-yl)methanone, 2,2,2-trifluoroacetic acid salt [Cpd 641]",,14

Compound,IC50 [nM],IC50 [1] [nM]
"(3-bromo-4-methylphenyl)(4-(3-(cyclopropylamino)quinoxalin-2-yl)piperazin-1-yl)methanone, 2,2,2-trifluoroacetic acid salt [Cpd 154]",,720
"(4-(2-(cyclopropylamino)pyrido[3,4-b]pyrazin-3-yl)piperazin-1-yl)(4-(difluoromethyl)phenyl)methanone, 2,2,2-trifluoroacetic acid salt [Cpd 289]",,270
(4-bromo-3-fluorophenyl)(4-(3-(cyclopropylamino)-7-fluoroquinoxalin-2-yl)piperazin-1-yl)methanone [Cpd 247],,1490
"(4-chloro-2-(trifluoromethyl)phenyl)(4-(2-(cyclopropylamino)pyrido[3,4-b]pyrazin-3-yl)piperazin-1-yl)methanone, 2,2,2-trifluoroacetic acid salt [Cpd 392]",,260
"(4-chloro-2-fluorophenyl)(1-(2-(cyclopropylamino)pyrido[3,4-b]pyrazin-3-yl)piperidin-4-yl)methanone, 2,2,2-trifluoroacetic acid salt [Cpd 447]",,35
"(4-chloro-2-fluorophenyl)(4-(2-((2,2-difluoroethyl)amino)pyrido[3,4-b]pyrazin-3-yl)piperazin-1-yl)methanone, 2,2,2-trifluoroacetic acid salt [Cpd 369]",,400
"(4-chloro-3-methylphenyl)(4-(3-(pyridin-3-ylamino)quinoxalin-2-yl)piperazin-1-yl)methanone, 2,2,2-trifluoroacetic acid salt [Cpd 230]",,800
"(4-chlorophenyl)(1-(2-(cyclopropylamino)pyrido[3,4-b]pyrazin-3-yl)piperidin-4-yl)methanone, 2,2,2-trifluoroacetic acid salt [Cpd 430]",,1100
"(4-chlorophenyl)(4-(2-(cyclopropylamino)pyrido[3,4-b]pyrazin-3-yl)piperazin-1-yl)methanone [Cpd 263]",,120
"(4-chlorophenyl)(4-(3-(pyridin-3-ylamino)quinoxalin-2-yl)piperazin-1-yl)methanone, 2,2,2-trifluoroacetic acid salt [Cpd 223]",,5620
"(6-chloro-2,3-difluorophenyl)(1-(2-(cyclopropylamino)pyrido[3,4-b]pyrazin-3-yl)piperidin-4-yl)methanone, 2,2,2-trifluoroacetic acid salt [Cpd 569]",,62
"(R)-2-((3-(4-(2,5-dichlorobenzyl)piperazin-1-yl)quinoxalin-2-yl)amino)propan-1-ol, 2,2,2-trifluoroacetic acid salt [Cpd 172]",,2340
"(R)-2-(cyclopropylamino)-3-(4-((2,4-difluorophenyl)fluoromethyl)piperidin-1-yl)-N,N-dimethylpyrido[3,4-b]pyrazine-7-carboxamide, 2,2,2-trifluoroacetic acid salt [Cpd 578]",,7210
"(R)-3-(4-((2,4-difluorophenyl)fluoromethyl)piperidin-1-yl)-N-isopropylpyrazino[2,3-d]pyridazin-2-amine, 2,2,2-trifluoroacetic acid salt [Cpd 640]",,72
"(R)-7-chloro-N-cyclopropyl-3-(4-((2,4-difluorophenyl)fluoromethyl)piperidin-1-yl)pyrido[3,4-b]pyrazin-2-amine, 2,2,2-trifluoroacetic acid salt [Cpd 523]",,340
"(R)-(2-(cyclopropylamino)-3-(4-((2,4-difluorophenyl)fluoromethyl)piperidin-1-yl)pyrido[3,4-b]pyrazin-7-yl)(morpholino)methanone, 2,2,2-trifluoroacetic acid salt [Cpd 580]",,8
"(R)-azetidin-1-yl(2-(cyclopropylamino)-3-(4-((2,4-difluorophenyl)fluoromethyl)piperidin-1-yl)pyrido[3,4-b]pyrazin-7-yl)methanone [Cpd 589]",,69
"(R)—N-cyclopropyl-3-(4-((2,4-difluorophenyl)fluoromethyl)piperidin-1-yl)pyrazino[2,3-d]pyridazin-2-amine, 2,2,2-trifluoroacetic acid salt [Cpd 599]",,5
"(S)-2-(cyclopropylamino)-3-(4-((2,4-difluorophenyl)fluoromethyl)piperidin-1-yl)-N,N-dimethylpyrido[3,4-b]pyrazine-7-carboxamide, 2,2,2-trifluoroacetic acid salt [Cpd 576]",,2880
"(S)-2-(cyclopropylamino)-3-(4-((2,4-difluorophenyl)fluoromethyl)piperidin-1-yl)-N,N-dimethylpyrido[3,4-b]pyrazine-7-carboxamide, 2,2,2-trifluoroacetic acid salt [Cpd 577]",,4900

# Reference: patent US9770452B2, “Quinoxaline derivatives as GPR6 modulators” (Takeda Pharmaceutical Company Limited, priority 2012, dated 2017)
